# Test results reported in ChEMBL document CHEMBL5725356, “Anti-fibrotic pyridinones” (2017).
# Assay: ET-1 Assay: Fibroblasts (primary human lung and dermal, HFL-1, 3T3 etc) are seeded in 96-well plates at ~15000 cells/well and serum starved for 0-48 hours. After media exchange, compounds serially diluted in DMSO are added to the cells. After a brief incubation of ~30 min, stimulants (TGFb, serum, LPA etc) are added followed by further incubation for 16-48 hours. Media is then harvested and stored frozen in plate format for later endothelin-1 (ET-1) determination by ELISA. Toxicity measurements are made using the ATPlite kit (Perkin-Elmer). ET-1 is quantified using an ELISA kit (R&D Systems). The amount of ET-1 produced in the assay wells are back-calculated using the ELISA standard. The ability of a compound to inhibit ET-1 production is typically analyzed by fitting dose-response curves to a 4-parameter logistic function to obtain an EC50 value.
# Conditions: HFL1
row,Structure (SMILES),EC50
1,COc1ccc(-c2ccc(=O)n(-c3cccc(OC)c3)c2)cc1,in the range around 125 µM
2,O=c1ccc(-c2ccccc2)cn1-c1cncnc1,> 200 µM
3,Cc1n[nH]c(C)c1-c1ccc(=O)n(-c2ccc(OC(F)(F)F)cc2)c1,in the range around 125 µM
4,Cc1cc(=O)n(-c2ccc(OC(F)(F)F)cc2)cc1-c1ccc2c(c1)OCC(=O)N2C,< 50 µM
5,Cn1cc(-c2cn(-c3ccc(OC(F)(F)F)cc3)c(=O)c3c2ccn3CCO)cn1,< 50 µM
6,Cc1cc(=O)n(-c2ccc(OC(F)(F)F)cc2)cc1-c1ccc(-c2cncs2)cc1,in the range around 125 µM
7,Cn1cc(-c2cn(-c3ccc(OC(F)(F)F)cc3)c(=O)cc2O)cn1,> 200 µM
8,Cc1cc(=O)n(-c2ccccc2)cc1-c1ccccc1,in the range around 125 µM
9,CCCCC(=O)Nc1cc(=O)n(-c2ccc(OC(F)(F)F)cc2)cc1-c1ccc(F)cc1,> 200 µM
10,COc1cc(-n2cc(-c3ccc(F)cc3)c(C)cc2=O)cc(OC)c1OC,in the range around 125 µM
11,CCOc1ccc(-n2cc(-c3cn[nH]c3)ccc2=O)c(C)c1,< 50 µM
12,CCn1nnc2c(=O)n(-c3ccc(OC(F)(F)F)cc3)cc(-c3cnn(C)c3)c21,< 50 µM
13,O=c1ccc(-c2cccc(Cl)c2)cn1-c1ccccc1,in the range around 125 µM
14,Cn1cc(-c2c[nH]c(=O)c3[nH]ccc23)cn1,< 50 µM
15,CC(C)Oc1ccc(-n2cc(-c3ccc(F)cc3)ccc2=O)cc1,in the range around 125 µM
16,Cc1cc(=O)[nH]cc1-c1cccc2c1OC(F)(F)O2,< 50 µM
17,Cc1cc(=O)n(-c2ccc(OC(F)(F)F)cc2)cc1-c1ccc2cn(C)nc2c1,in the range around 125 µM
18,CCn1ccc2c(-c3cnn(C)c3)c[nH]c(=O)c21,< 50 µM
19,O=c1c2nccnc2c(-c2cnn(CCO)c2)cn1-c1ccc(OC(F)(F)F)cc1,in the range around 125 µM
20,CCOc1ccc(-n2cc(-c3ccc(F)cc3)c(Cl)cc2=O)c(C)c1,> 200 µM
21,CCOc1ccc(-n2cc(-c3cnn(C)c3)c(NCc3ccncc3)cc2=O)c(C)c1,in the range around 125 µM
22,O=c1c2[nH]ncc2c(-c2ccc(F)cc2)cn1-c1ccc(OC(F)(F)F)cc1,< 50 µM
23,Cc1cc(=O)n(-c2cccc3c2OCO3)cc1-c1cnn(C)c1,> 200 µM
24,Cn1ccc2c(-c3cn[nH]c3)cn(-c3ccc(C#N)cc3)c(=O)c21,< 50 µM
25,Cn1cc(-c2cn(-c3ccc(OC(F)(F)F)cc3)c(=O)cc2Cl)cn1,> 200 µM

row,Structure (SMILES),EC50
1,CCOc1ccc(-n2cc(-c3ccccc3)ccc2=O)c(C)c1,in the range around 125 µM
2,CCn1ccc2c(-c3cnn(CCO)c3)cn(-c3ccc(OC(F)(F)F)cc3)c(=O)c21,< 50 µM
3,Cc1cc(=O)n(-c2ccc(OC(F)(F)F)cc2C)cc1-c1cnn(C)c1,> 200 µM
4,O=c1ccc(Br)cn1-c1cccc(C(F)(F)F)c1,> 200 µM
5,COc1cccc(-n2cc(C(F)(F)F)ccc2=O)c1,> 200 µM
6,Cn1cc(-c2cn(-c3ccc(OC(F)(F)F)cc3)c(=O)c3c2OCC(=O)N3)cn1,> 200 µM
7,CC(C)Oc1ccc(-n2cc(-c3cccc(Cl)c3)ccc2=O)cc1,< 50 µM
8,CCCCOC(=O)n1cc(-c2ccc(=O)n(-c3ccccc3)c2)cn1,in the range around 125 µM
9,Cc1cc(=O)n(-c2ccccc2C)cc1-c1ccc(F)cc1,in the range around 125 µM
10,Cn1cc(-c2cn(-c3ccc(OC(F)(F)F)cc3)c(=O)c3c2NCCC3)cn1,> 200 µM
11,O=c1cc(OCCN2CCOCC2)c(-c2ccc(F)cc2)cn1-c1ccc(OC(F)(F)F)cc1,in the range around 125 µM
12,Cc1cc(=O)n(-c2cccc3c2OCO3)cc1-c1ccc(F)cc1,in the range around 125 µM
13,COc1ccc(-c2ccc(=O)n(-c3ccc(Cl)cc3)c2)cc1,in the range around 125 µM
14,Cc1n[nH]c(C)c1-c1ccc(=O)n(-c2ccncc2)c1,> 200 µM
15,O=c1c2nccnc2c(-c2cn[nH]c2)cn1-c1ccc(Cl)cc1,> 200 µM
16,O=c1ccc(C(F)(F)F)cn1-c1ccc(OC(F)(F)F)cc1,> 200 µM
17,Cn1cc(-c2cn(-c3ccc(OC(F)(F)F)cc3)c(=O)cc2NCc2ccc(Cl)cc2)cn1,in the range around 125 µM
18,O=c1ccc(-c2cccc(Cl)c2)cn1-c1ccncc1,> 200 µM
19,O=C1NC=CCN1c1ccccc1,> 200 µM
20,CCn1cnc2c(-c3cnn(C)c3)c[nH]c(=O)c21,in the range around 125 µM
21,CCn1cnc2c(=O)n(-c3ccc(OC(F)(F)F)cc3)cc(-c3cnn(C)c3)c21,> 200 µM
22,Cn1cc(-c2cn(-c3ccc(OC(F)(F)F)cc3)c(=O)c3cc[nH]c23)cn1,< 50 µM
23,Cn1cc(-c2cn(-c3ccc(OC(F)(F)F)cc3)c(=O)cc2OCc2ccccc2)cn1,> 200 µM
24,Cn1cc(-c2cn(-c3ccc(OC(F)(F)F)cc3)c(=O)cc2Oc2cccc(Cl)c2)cn1,< 50 µM
25,O=C(NCc1ccccc1)Nc1cc(=O)n(-c2ccc(OC(F)(F)F)cc2)cc1-c1ccc(F)cc1,> 200 µM

row,Structure (SMILES),EC50
1,O=c1ccc(-c2cncnc2)cn1-c1ccc(F)cc1,> 200 µM
2,O=c1cc(OCc2ccccc2)c(-c2ccc(F)cc2)cn1-c1ccc(OC(F)(F)F)cc1,> 200 µM
3,Cc1cc(=O)n(-c2ccc(OC(F)(F)F)cc2)cc1-c1ccccc1,< 50 µM
4,Cc1cc(=O)n(-c2ccc3ocnc3c2)cc1-c1cnn(C)c1,> 200 µM
5,Cc1cc(=O)n(-c2ccc3scnc3c2)cc1-c1cnn(C)c1,> 200 µM
6,C[C@@H]1CCC(=O)N(c2ccccc2)C1,> 200 µM
7,Cc1ccc(=O)n(CCc2ccccc2)c1,in the range around 125 µM
8,Cn1cc(-c2cn(-c3ccc(OC(F)(F)F)cc3)c(=O)cc2Nc2ccccc2)cn1,> 200 µM
9,Cc1cc(=O)n(-c2ccc(OC(F)(F)F)cc2)cc1-c1cn(C)nc1C(F)(F)F,in the range around 125 µM
10,Cn1cc(-c2cn(-c3ccc(OC(F)(F)F)cc3)c(=O)cc2NCCc2ccccc2)cn1,> 200 µM
11,Cn1ccc2c(-c3cn[nH]c3)cn(-c3ccc(OC(F)(F)F)cc3)c(=O)c21,< 50 µM
12,O=c1c2c(c(-c3ccc(F)cc3)cn1-c1ccc(OC(F)(F)F)cc1)NCCC2,> 200 µM
13,Cn1cc(-c2cn(-c3ccc(OC(F)(F)F)cc3)c(=O)cc2N2CCCCC2)cn1,> 200 µM
14,Cn1cc(-c2cn(-c3ccc(F)cc3)c(=O)cc2Oc2ccccc2)cn1,< 50 µM
15,COc1cccc(-n2cc(C(C)=O)ccc2=O)c1,> 200 µM
16,CCOc1ccc(-n2cc(-c3cnn(C)c3)c3nccnc3c2=O)c(C)c1,< 50 µM
17,CCOc1ccc(-n2cc(-c3cnn(C)c3)c(NCc3ccccn3)cc2=O)c(C)c1,in the range around 125 µM
18,CC(C)N1N=NC2C(=O)N(c3ccc(OC(F)(F)F)cc3)C=C(c3cnn(C)c3)C21 (stereo not given),in the range around 125 µM
19,Cc1cc(=O)n(-c2ccc(C(F)(F)F)cc2)cc1-c1ccc(F)cc1,> 200 µM
20,Cn1ccc2c(-c3cn[nH]c3)cn(-c3ccc(Cl)cc3)c(=O)c21,< 50 µM
21,Cc1cc(=O)n(-c2cccc(OC(F)(F)F)c2)cc1-c1ccccc1,< 50 µM
22,Cn1cc(-c2cn(-c3ccc(OC(F)(F)F)cc3)c(=O)cc2OCCN2CCS(=O)(=O)CC2)cn1,> 200 µM
23,O=c1ccc(-c2cncnc2)cn1-c1ccccc1F,> 200 µM
24,Cc1cc(=O)n(-c2ccccc2F)cc1-c1ccccc1,in the range around 125 µM
25,Cn1cc(-c2cn(-c3ccc(OC(F)(F)F)cc3)c(=O)c3c2nnn3CCF)cn1,in the range around 125 µM

row,Structure (SMILES),EC50
1,CCc1cc(=O)n(-c2ccc(OC(F)(F)F)cc2)cc1-c1ccc(F)cc1,in the range around 125 µM
2,O=C1CCCN1CCOc1cc(=O)n(-c2ccc(OC(F)(F)F)cc2)cc1-c1ccc(F)cc1,> 200 µM
3,CNC(=O)Nc1cccc(-n2cc(-c3ccc(F)cc3)c(C)cc2=O)c1,in the range around 125 µM
4,Cn1cc(-c2cn(-c3ccc(OC(F)(F)F)cc3)c(=O)c3nc[nH]c23)cn1,> 200 µM
5,Cc1ccc(=O)n(-c2ccc(OC(F)(F)F)cc2)n1,< 50 µM
6,CCn1ccc2c(-c3ccc(F)cc3)c[nH]c(=O)c21,< 50 µM
7,Cc1cc(=O)n(-c2ccc(OC(F)(F)F)cc2)cc1-c1cnc2nccn2c1,> 200 µM
8,Cn1cc(-c2cn(-c3ccc(O)cc3)c(=O)cc2Oc2ccccc2)cn1,> 200 µM
9,Cn1cc(-c2cn(-c3ccc(OC(F)(F)F)cc3)c(=O)cc2Oc2cccc(F)c2)cn1,< 50 µM
10,Cc1nc2c(-c3cn[nH]c3)cn(-c3ccc(OC(F)(F)F)cc3)c(=O)c2s1,< 50 µM
11,CC(=O)c1ccc(=O)n(-c2cccc(F)c2)c1,> 200 µM
12,Cc1cc(=O)n(-c2ccc(OC(F)(F)F)cc2)cc1-c1ccnn1C,> 200 µM
13,CC(=O)N1CCc2c(-c3cnn(C)c3)cn(-c3ccc(OC(F)(F)F)cc3)c(=O)c21,in the range around 125 µM
14,CCOc1ccc(-n2cc(-c3cnn(C)c3)c3nn(CC)nc3c2=O)c(C)c1,in the range around 125 µM
15,Cc1n[nH]c(C)c1-c1ccc(=O)n(-c2ccc(OC(C)C)cc2)c1,in the range around 125 µM
16,Cc1cc(-c2ccc(F)cc2)cn(-c2ccccc2)c1=O,< 50 µM
17,CCOc1ccc(-n2cc(-c3c(C)n[nH]c3C)ccc2=O)c(C)c1,in the range around 125 µM
18,CCn1nnc2c(-c3cnn(C)c3)cn(-c3ccc(OC(F)(F)F)cc3)c(=O)c21,< 50 µM
19,CCOc1ccc(-n2cc(-c3cnn(C)c3)c(OCCOCCOC)cc2=O)c(C)c1,in the range around 125 µM
20,COc1ccc(CNc2cc(=O)n(-c3ccc(OC(F)(F)F)cc3)cc2-c2cnn(C)c2)cc1,< 50 µM
21,Cn1cc(-c2cn(-c3ccc(Cl)cc3)c(=O)c3c2ccn3C)cn1,< 50 µM
22,O=c1cc(NCc2ccccn2)ccn1-c1ccc(OC(F)(F)F)cc1,< 50 µM
23,Cc1cc(=O)n(-c2ccc(OC(F)(F)F)cc2)cc1-c1ccc2scnc2c1,< 50 µM
24,Cc1n[nH]c(C)c1-c1ccc(=O)n(-c2cccc(C(F)(F)F)c2)c1,in the range around 125 µM
25,CCOc1ccc(Oc2cc(=O)n(-c3ccc(OC(F)(F)F)cc3)cc2-c2cnn(C)c2)cc1C#N,< 50 µM
